Data on nine molecules can be found in patent US20240108738A1, “BICYCLIC PEPTIDE LIGANDS SPECIFIC FOR NK CELLS” (Bicycle Tx Limited, priority 2021, published 2024).

Where two headings read alike, the source gives them in different places. Numbered stars: 1 amine (or outer) side, 2 acyl side, 3 side chain; on linkers, the order of the positions; unused ones are H or OH. Bridge positions count the residues as written; N and C are the ends. Square brackets hold non-standard residues; d marks the D form. Peptide text beside a SMILES is read from it. TATA = O=C(CC[*:1])N1CN(C(=O)CC[*:2])CN(C(=O)CC[*:3])C1; Cba = N[C@@H](CC1CCC1)C(=O)O

Assay [1] concerns the target T1, human NKp46-his tagged protein (Homo sapiens, UniProt O76036).
T1 construct: His tag; purchased AcroBiosystems
Nature of the assay: NKp46 Fluorescence Polarization (FP) competition binding assay, tracer BCY15035. (Fluorescence polarisation rises when a labelled molecule tumbles more slowly, as on binding a larger partner.)

The target of assay [2] is T2, Fc-tagged human NKp46 (Homo sapiens, UniProt O76036).
T2 construct: purchased ACROBiosystems NC1-H5257
The experiment in a line: NKp46 SPR assay (Method 1 and/or Method 2). It is filed as binding. The following applies: SPR Method 1 and/or Method 2, Table 3B. In short, it runs like this: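 Method 1: biotinylated Avi-tag NKp46-Fc on streptavidin chip, peptides to 100-5000 nM top in PBS/0.05% Tween 20, 0.5% DMSO; 1:1 kinetic fit with mass transport. Method 2: NKp46-Fc captured by anti-Fc, PBS-P+ 2% DMSO; steady-state or kinetic 1:1 fit. Both 25° C, 50 μl/min, 60 s association.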
On the technique in general: In SPR one partner is held on a chip, and binding of the other changes the refractive index at the surface.

Assay [3] deals with CD56+ (NK cells) from human PBMCs. The experiment in a line: Flow cytometry binding to PBMCs, CD56+ (NK cell) population. It is filed as cell-based. The following applies: FIG. 2A. As for the experimental part: (§1) The affinity of NKp46 dimeric bicyclic peptides conjugated to Alexa Fluor® 488 to primary healthy peripheral blood mononuclear cells (PBMCs) was evaluated using a flow cytometry assay.
(§2) On the day of the experiment, medium was prepared by supplementing RPMI-1640 (Gibco™ 11875-093; with L-glutamine) with 10% heat-inactivated fetal bovine serum (FBS; Corning® 35-011-CV), 10 mM HEPES (Gibco™ 15-630-080), and 1% Penicillin Streptomycin (Corning™ 30-002-Cl), herein referred to as working medium. Previously isolated human peripheral blood mononuclear cells (PBMCs), from whole blood, were quick thawed in a water bath and washed once at 500 rpm for 5 minutes in 10 mL of prewarmed working medium. […]
(§3) Preparation of samples for flow cytometry: Zombie Aqua™ Fixable Viability Dye (BioLegend® 423102) was prepared as a 1:1000 dilution in PBS and 100 μL of viability dye was added to each well and incubated in the dark at 4° C. for 30 minutes. […] Cells were resuspended in 200 μL of stain buffer and kept at 4° C. in the dark until read by BD FACSCelesta™ flow cytometer.
(§4) Flow cytometry results were analyzed in FlowJo™ software with a gating strategy to evaluate the lymphocyte population then exclude debris, gate on single and live cells only, and determining the geometric mean of the Alexa Fluor® 488 in the CD3+ and CD3−/CD56+ populations. […]
In general terms: Flow cytometry measures light scatter and fluorescence of single cells or particles in a stream.

For assay [4], the system named is CD56- CD3+ (T-cell population) from human PBMCs. Nature of the assay: Flow cytometry binding to PBMCs, CD56-/CD3+ (T-cell) population. It is filed as cell-based. The following applies: FIG. 2B. As for the experimental part:
as §1, §2, §3, §4

The target in assay [5] is T3, CD16a/FCgRIIIa (F158 variant) (Homo sapiens, UniProt P08637).
T3 construct: host or cells: HEK293
Nature of the assay: CD16a/FCgRIIIa HTRF assay (IgG competition on HEK293 cells). Format: binding.

The test system of assay [6] is human CD16a V176 variant. Nature of the assay: IgG competition assay (AlphaScreen), V variant. The following applies: N-terminally biotinylated CD16a V176 10 nM, mouse IgG2a acceptor beads. Format: binding.
Assay [7] concerns the target CD16a (V Variant) (Homo sapiens, UniProt P08637, F176V). Nature of the assay: FcγRIII (CD16a) SPR (Method A and/or Method B), V variant. It is filed as binding.

As a reminder, the Ki is the equilibrium dissociation constant of an inhibitor or competing ligand from its target. A low value points to tighter binding. Broadly, the Kd is the concentration at which binding is half-saturated. In assay [1], `CC(C)C[C@@H]1NC(=O)[C@H](Cc2ccc(O)cc2)NC(=O)[C@H](CC(=O)O)NC(=O)[C@@H]2CCCN2C(=O)[C@H](CC(C)C)NC(=O)[C@H](Cc2ccc(O)cc2)NC(=O)[C@@H](NC(=O)[C@H](C)N)CSCCC(=O)N2CN3CN(C2)C(=O)CCSC[C@H](NC1=O)C(=O)N[C@H](C)C(=O)N[C@@H](CC(=O)O)C(=O)N[C@@H](CCC(=O)O)C(=O)N[C@@H](Cc1ccc(O)cc1)C(=O)N[C@H](C(=O)N[C@@H](C)C(N)=O)CSCCC3=O` [BCY15650, A-(SEQ ID NO: 26)-A] (H-ACYLPDYLC[dA]DEYCA-NH2; linker 2-9-14 via TATA; N-terminus assumed) gave a Ki of 0.016 µM. This molecule also yielded a Kd in assay [2] of 0.01 ± 0.003 µM.
As to “BCY15663: AF488 NKp46 homodimer of BCY15452, C-term D-Lys(PYA), linker N-(amine-PEG2)-N-bis(PEG3-azide) (ACYLPDYLCGDEYCAK; not fully specified; D-residues)”, in assay [3], the “binding to CD56+ (NK cell) population of PBMCs (in words)” value is “dose-dependent binding”. Also, the “binding to CD56-/CD3+ (T-cell) population of PBMCs (in words)” value in assay [4] is “binding to NK cells only”.
In assay [1], `CC(C)C[C@@H]1NC(=O)[C@H](Cc2ccc(O)cc2)NC(=O)[C@@H](NC(=O)[C@H](C)N)CSCCC(=O)N2CN3CN(C2)C(=O)CCSC[C@@H](C(=O)N[C@@H](C)C(N)=O)NC(=O)[C@H](Cc2ccc(O)cc2)NC(=O)[C@H](CCC(=O)O)NC(=O)[C@H](CC(=O)O)NC(=O)CNC(=O)[C@H](CSCCC3=O)NC(=O)[C@H](CC(C)(C)C)NC(=O)[C@H](Cc2c[nH]c3ccccc23)NC(=O)[C@H](CC(=O)O)NC(=O)[C@@H]2CCCN2C1=O` [BCY15648, A-(SEQ ID NO: 24)-A] had a Ki of 1.62 µM.
One may read the IC50 as the concentration that gives 50% inhibition. `C[C@H](N)C(=O)N[C@H]1CSCc2nc3nc(n2)CSC[C@H](NC(=O)[C@@H]2CCCN2C(=O)[C@H](CCC(=O)O)NC(=O)[C@H](CO)NC(=O)[C@@H]2C[C@@H](O)CN2C(=O)[C@H](Cc2c[nH]cn2)NC(=O)[C@H](Cc2c[nH]c4ccccc24)NC(=O)[C@H](CCCNC(=N)N)NC1=O)C(=O)NCC(=O)N[C@@H](C)C(=O)N[C@@H](Cc1c[nH]c2ccccc12)C(=O)N[C@H](C(=O)N[C@@H](C)C(N)=O)CSC3` [BCY20383, A-(SEQ ID NO: 228)-A] gave a concentration for half-maximal inhibition (IC50) in assay [5] of 1.11 µM.
The molecule `C#CCCC(=O)NCCCC[C@H](NC(=O)[C@H](C)NC(=O)[C@@H]1CSCCC(=O)N2CN3CN(C2)C(=O)CCSC[C@H](NC(=O)[C@H](C)N)C(=O)N2CCC[C@H]2C(=O)N2CCC[C@H]2C(=O)N[C@@H]([C@@H](C)O)C(=O)N[C@@H](C(C)C)C(=O)N[C@@H](Cc2ccc(O)cc2)C(=O)N[C@@H](CSCCC3=O)C(=O)N[C@@H](Cc2c[nH]cn2)C(=O)N2CCC[C@H]2C(=O)N[C@@H](CC(C)C)C(=O)N[C@@H](CC(=O)O)C(=O)N1)C(N)=O` [BCY15685, A-(SEQ ID NO: 60)-A-[K(PYA)]] came in with an IC50 in assay [6] of 3480 nM.
In turn, `CC(C)C[C@@H]1NC(=O)CNC(=O)[C@H](C(C)C)NC(=O)[C@@H](NC(=O)[C@H](C)N)CSCc2nc3nc(n2)CSC[C@H](NC(=O)[C@@H]2CCCN2C(=O)CNC(=O)[C@H](CC(C)C)NC(=O)[C@H](CCC(=O)O)NC(=O)[C@H](CCC(=O)O)NC1=O)C(=O)N[C@@H](CO)C(=O)N[C@@H](CC(=O)O)C(=O)N[C@@H](CC(C)C)C(=O)N[C@H](C(=O)N[C@@H](C)C(N)=O)CSC3` [BCY16493, A-(SEQ ID NO: 62)-A] yielded a dissociation constant (Kd) in assay [7] of 7330 nM. This molecule also came in with an IC50 in assay [5] of 4.79 µM.
`CC(=O)N[C@H]1CSCCC(=O)N2CN3CN(C2)C(=O)CCSC[C@H](NC(=O)[C@H](CC(C)C)NC(=O)[C@H](Cc2ccc(O)cc2)NC(=O)[C@H](CC(=O)O)NC(=O)[C@@H]2CCCN2C(=O)[C@H](CC2CCC2)NC(=O)[C@H](Cc2ccc(O)cc2)NC1=O)C(=O)N[C@H](C)C(=O)N[C@@H](CC(=O)O)C(=O)N[C@@H](CCC(=O)O)C(=O)N[C@@H](Cc1ccc(O)cc1)C(=O)N[C@H](C(N)=O)CSCCC3=O` [BCY16133, Ac-(SEQ ID NO: 40)] (Ac-CY[Cba]PDYLC[dA]DEYC-NH2; linker 1-8-13 via TATA; C-terminus assumed) gave a Ki in assay [1] of 0.01 µM.
Same read-out and setting: with `CC(C)C[C@@H]1NC(=O)[C@H](Cc2ccc(O)cc2)NC(=O)[C@H](CC(=O)O)NC(=O)[C@@H]2CCCN2C(=O)[C@H](CC2CCC2)NC(=O)[C@H](Cc2ccc(O)cc2)NC(=O)[C@@H](NC(=O)[C@H](C)N)CSCCC(=O)N2CN3CN(C2)C(=O)CCSC[C@@H](C(=O)N[C@@H](C)C(N)=O)NC(=O)[C@H](Cc2ccc(O)cc2)NC(=O)[C@H](CCC(=O)O)NC(=O)[C@H](CC(=O)O)NC(=O)CNC(=O)[C@H](CSCCC3=O)NC1=O` [BCY15639, A-(SEQ ID NO: 16)-A] (H-ACY[Cba]PDYLCGDEYCA-NH2; linker 2-9-14 via TATA) the figure was 0.017 µM.
On to `CC(C)C[C@@H]1NC(=O)[C@@H]2CCCN2C(=O)[C@H](Cc2c[nH]cn2)NC(=O)[C@@H]2CSCCC(=O)N3CN(CN(C3)C(=O)CCSC[C@H](NC(=O)[C@H](C)N)C(=O)N3CCC[C@H]3C(=O)N3CCC[C@H]3C(=O)N[C@@H]([C@@H](C)O)C(=O)N[C@@H](C(C)C)C(=O)N[C@@H](Cc3ccc(O)cc3)C(=O)N2)C(=O)CCSC[C@@H](C(=O)N[C@@H](C)C(N)=O)NC(=O)[C@H](CC(=O)O)NC1=O` [BCY11808, A-(SEQ ID NO: 60)-A], for which the Kd in assay [7] (SPR Method A and/or B, Table 6B, read-out: Kd (nM) (V Variant)) was 3710 nM. Besides, in assay [5] (HTRF, competition with IgG-d2 on HEK293 cells expressing Terbium-labelled CD16a, 2 h at RT, read-out: IC50), the IC50 came to 9.44 µM.
